Results: patent US9096832B2, “Differentiation of human embryonic stem cells” (LifeScan, Inc., priority 2007, dated 2015)

Test system: H9 embryonic stem cells
Assay: Microarray analysis of definitive endoderm stage cells on […] or MEFs +/- Wnt-3a (Table VI)
Assay type: cell-based, human
Details: low serum
Experimental: Controls for each group included cells plated on [sequence]—coated dishes and cultured in MEF-conditioned medium or cells plated on MEFs and cultured in ES medium. All groups contained three biological replicates and each biological replicate was repeated on two separate gene chips.
Sample preparation, hybridization, and image analysis were performed according to the Affymetrix Human Genome U133 Plus 2.0 Array. Following normalization and a log transformation, data analysis was performed using OmniViz® software (MA) and [sequence] […] Significant differences in gene expression between the samples were evaluated using analysis of variance and an F-test with adjusted P-value (Benjamini and Hochberg correction) of less-than or equal to 0.05. Only genes with a present call in at least one group were included in the analysis.

## Activin A: activin A (a member of the TGFβ superfamily), R&D Systems; 'w/o wnt' in Table VII = 100 ng/ml Activin A without Wnt3a
On MATRIGEL
  Intensity (log): neuropilin 1: −1.623
  Intensity (log): noggin: −1.636
  Intensity (log): splicing factor, arginine serine-rich 5: 0.7481
  Intensity (log): stanniocalcin 1: 2.411
On MATRIGEL, r13
  Intensity (log): ESTs: −4.827
On MATRIGEL, r16
  Intensity (log): ESTs: −3.437
On MATRIGEL, r20
  Intensity (log): solute carrier family 16 (monocarboxylic acid transporters), member 3: −0.06641
On MATRIGEL, r30
  Intensity (log): Homo sapiens solute carrier family 16 (monocarboxylic acid transporters), member 3 (SLC16A3), mRNA: 0.7103
On MATRIGEL, r49
  Intensity (log): ESTs: −0.04716
On MATRIGEL, r50
  Intensity (log): glycophorin B (includes Ss blood group): −2.852
On MATRIGEL, r62
  Intensity (log): ESTs: −4.936
On MATRIGEL, r66
  Intensity (log): Homo sapiens HNF-3beta mRNA for hepatocyte nuclear factor-3 beta, complete cds: −2.718
On MATRIGEL, r81
  Intensity (log): ESTs: −2.336
On MATRIGEL, r92
  Intensity (log): ESTs: −2.896
On MATRIGEL, r98
  Intensity (log): ESTs: −3.098
On MATRIGEL, r108
  Intensity (log): ESTs: −1.401
On MATRIGEL, r121
  Intensity (log): Homo sapiens phorbolin-like protein MDS019 (MDS019), mRNA: −1.119
On MATRIGEL, r129
  Intensity (log): ESTs: −1.555
On MATRIGEL, r136
  Intensity (log): ESTs: −0.7315
On MATRIGEL, r137
  Intensity (log): ESTs: −2.036
On MATRIGEL, r142
  Intensity (log): ESTs: −0.6486
On MATRIGEL, r145
  Intensity (log): ESTs: −1.782
On MATRIGEL, r165
  Intensity (log): Cluster Incl. AB028021: Homo sapiens HNF-3beta mRNA for hepatocyte nuclear factor-3 beta, complete cds: −1.5339
On MATRIGEL, r205
  Intensity (log): hypothetical protein FLJ23403: −1.456
On MATRIGEL, r215
  Intensity (log): matrix metalloproteinase 14 (membrane-inserted): −2.057
On MATRIGEL, r218
  Intensity (log): Homo sapiens glycophorin B (includes Ss blood group) (GYPB), mRNA: −0.9473
On MATRIGEL, r234
  Intensity (log): ESTs: 0.8128
On MATRIGEL, r240
  Intensity (log): ESTs: 1.068
On MATRIGEL, r241
  Intensity (log): ESTs: −1.412
On MATRIGEL, r250
  Intensity (log): KIAA0878 protein: 1.1189
On MATRIGEL, r260
  Intensity (log): ESTs: 1.481
On MATRIGEL, r270
  Intensity (log): Homo sapiens matrix metalloproteinase 14 (membrane-inserted) (MMP14), mRNA: −0.7235
On MATRIGEL, r278
  Intensity (log): ESTs: 0.5216
On MATRIGEL, r290
  Intensity (log): ESTs: 0.3072
On MATRIGEL, r301
  Intensity (log): ESTs: −3.574
On MATRIGEL, r314
  Intensity (log): ESTs: −0.05909
On MATRIGEL, r315
  Intensity (log): Homo sapiens hypothetical protein FLJ23403 (FLJ23403), mRNA: −1.485
On MATRIGEL, r319
  Intensity (log): ESTs: −0.1824
On MATRIGEL, r332
  Intensity (log): Homo sapiens KIAA0878 protein (KIAA0878), mRNA: 2.0265
On MATRIGEL, r340
  Intensity (log): phorbolin-like protein MDS019: −1.118
On MATRIGEL, r347
  Intensity (log): ESTs: 0.3539
On MATRIGEL, r376
  Intensity (log): ESTs: −0.3497
On MATRIGEL, r377
  Intensity (log): ESTs: −0.9033
On MEFS
  Intensity (log): 6-phosphofructo-2-kinasefructose-2,6-biphosphatase 4: 1.6
  Intensity (log): ESTs, Highly similar to IHH_HUMAN INDIAN HEDGEHOG PROTEIN PRECURSOR (H. sapiens): 0.5905
  Intensity (log): ESTs, Moderately similar to JE0284 Mm-1 cell derived transplantability-associated protein 1b (H. sapiens): 4.222
  Intensity (log): ESTs, Weakly similar to FCE2 MOUSE LOW AFFINITY IMMUNOGLOBULIN EPSILON FC RECEPTOR (M. musculus): 3.48
  Intensity (log): ESTs, Weakly similar to the 331st table hypothetical protein KIAA0555 (H. sapiens): 0.4436
  Intensity (log): G protein-coupled receptor: 5.053
  Intensity (log): G protein-coupled receptor 49: 2.505
  Intensity (log): Homo sapiens Kell blood group (KEL), mRNA: −0.3839
  Intensity (log): Homo sapiens MLL septin-like fusion (MSF), mRNA: −1.5
  Intensity (log): Homo sapiens Mix-like homeobox protein 1 (MILD1) mRNA, complete cds: 0.922
  Intensity (log): Homo sapiens Rho GTPase activating protein 6 (ARHGAP6), transcript variant 2, mRNA: −1.285
  Intensity (log): Homo sapiens TBX3-iso protein (TBX3-iso), mRNA: 1.07
  Intensity (log): Homo sapiens angiopoietin 2 (ANGPT2), mRNA: 0.5968
  Intensity (log): Homo sapiens ankyrin-like with transmembrane domains 1 (ANKTM1), mRNA: 2.819
  Intensity (log): Homo sapiens apolipoprotein A-I (APOA1), mRNA: 2.469
  Intensity (log): Homo sapiens apolipoprotein A-II (APOA2), mRNA: 4.469
  Intensity (log): Homo sapiens arylsulfatase E (chondrodysplasia punctata 1) (ARSE), mRNA: 3.184
  Intensity (log): Homo sapiens atrophin-1 interacting protein 1; activin receptor interacting protein 1 (KIAA0705), mRNA: −1.32
  Intensity (log): Homo sapiens beta-site APP cleaving enzyme (BACE) mRNA, complete cds: 1.754
  Intensity (log): Homo sapiens cDNA FLJ11550 fis, clone HEMBA1002970: 4.216
  Intensity (log): Homo sapiens cDNA FLJ12993 fis, clone NT2RP3000197: 2.069
  Intensity (log): Homo sapiens cDNA FLJ13221 fis, clone NT2RP4002075: 1.31
  Intensity (log): Homo sapiens cardiac ventricular troponin C mRNA, complete cds: 1.4377
  Intensity (log): Homo sapiens cartilage linking protein 1 (CRTL1), mRNA: −0.8052
  Intensity (log): Homo sapiens cell adhesion molecule with homology to L1CAM (close homologue of L1) (CHL1), mRNA: −2.5002
  Intensity (log): Homo sapiens chromosome 19, cosmid R31181: 0.2239
  Intensity (log): Homo sapiens clone 23736 mRNA sequence: 4.507
  Intensity (log): Homo sapiens cryptic mRNA, complete cds: −0.6735
  Intensity (log): Homo sapiens cystatin S (CST4), mRNA: 3.87
  Intensity (log): Homo sapiens cystatin SA (CST2), mRNA: 2.1671
  Intensity (log): Homo sapiens cystatin SN (CST1), mRNA: 4.64
  Intensity (log): Homo sapiens cytidine deaminase (CDA), mRNA: −1.67
  Intensity (log): Homo sapiens dual specificity phosphatase 4 (DUSP4), mRNA: 4.122
  Intensity (log): Homo sapiens fibroblast growth factor 8 (androgen-induced) (FGF8), mRNA: 0.01583
  Intensity (log): Homo sapiens fibroblast growth factor 17 (FGF17), mRNA: 2.4872
  Intensity (log): Homo sapiens frizzled-related protein (FRZB), mRNA: 3.676
  Intensity (log): Homo sapiens gastrin-releasing peptide (GRP), mRNA: 0.5098
  Intensity (log): Homo sapiens glycophorin E (GYPE), mRNA: −1.501
  Intensity (log): Homo sapiens glycophorin Erik STA (GPErik) gene complete cds: −0.4544
  Intensity (log): Homo sapiens growth differentiation factor 3 (GDF3), mRNA: 2.875
  Intensity (log): Homo sapiens haptoglobin (HP), mRNA: 0.477
